Measured values published in patent publication US20260027068A1, “METHODS OF ADM[…]-KETAMINE” (Perception Neuroscience, Inc., priority 2022, published 2026).

Test: Respiratory rate (vital signs)
Conditions: 30 mg
Description: The Investigational Medicinal Product (IMP) R(−)-ketamine hydrochloride in sterile water for intravenous injection was investigated as an […] treatment of TRD. The International Union of Pure and Applied Chemistry (IUPAC) name is of the IMP is (2R)-2-(2-chlorophenyl)-2-(methylamino)cyclohexan-1-one. Subjects received the solution at either 30 mg or 60 mg dose, or a placebo. The IMP or placebo was administered on Day 1 as a single IV infusion via an electronic infusion pump over 40 minutes. The duration of study participation for each subject was up to 29 days including a screening period, a 3-day in-clinic visit, and 2 follow-up visits. 101 subjects were enrolled in approximately 20 study centers in the EU and the US.
Tympanic or temporal temperature, heart rate, blood pressure (SBP/DBP), respiratory rate, and SpO2 were assessed. Blood pressure and pulse measurements will be assessed with a completely automated device while the subject is supine or semi-supine. Manual techniques will be used only if an automated device is not available. Blood pressure and pulse measurements should be preceded by at least 5 minutes of rest for the subject in a quiet setting without distractions (e.g., television, cell phones). An abnormal blood pressure value at screening may be repeated once after 5 minutes of relaxation to determine the subject's eligibility. Blood pressure was recorded using the same arm and position (supine or semi-supine) throughout the study, where possible. Vital signs (to be taken before blood collection for laboratory tests) consisted of 1 pulse and 3 blood pressure measurements (3 consecutive blood pressure readings will be recorded at intervals of at least 1 minute). The average of the 3 blood pressure readings was recorded in the CRF. A pulse oximeter was used to measure peripheral capillary oxygen saturation (SpO2) continuously from pre-dose until 4-hours post-dose. A pulse oximeter was clipped onto the finger or foot of the subject, and light will be sent through the finger or foot and measured on the other side.
In these tables, baseline value is defined as the last non-missing value prior to study drug administration.

CN[C@@]1(c2ccccc2Cl)CCCCC1=O.Cl [R(−)-ketamine, (2R)-2-(2-chlorophenyl)-2-(methylamino)cyclohexan-1-one]
Respiratory Rate, Max (Day 1, 15 minutes): 22 breaths/minute | Respiratory Rate, Mean (Day 1, 15 minutes): 16.0 breaths/minute | Respiratory Rate, Median (Day 1, 15 minutes): 16.0 breaths/minute | Respiratory Rate, Min (Day 1, 15 minutes): 14 breaths/minute | Respiratory Rate, Max (Day 1, 40 minutes): 18 breaths/minute | Respiratory Rate, Mean (Day 1, 40 minutes): 15.7 breaths/minute | Respiratory Rate, Median (Day 1, 40 minutes): 16.0 breaths/minute | Respiratory Rate, Min (Day 1, 40 minutes): 13 breaths/minute | Respiratory Rate, Max (Day 1, 60 minutes): 17 breaths/minute | Respiratory Rate, Mean (Day 1, 60 minutes): 15.4 breaths/minute | Respiratory Rate, Median (Day 1, 60 minutes): 15.5 breaths/minute | Respiratory Rate, Min (Day 1, 60 minutes): 14 breaths/minute | Respiratory Rate, Max (Day 1, 2 hours): 18 breaths/minute | Respiratory Rate, Mean (Day 1, 2 hours): 15.9 breaths/minute | Respiratory Rate, Median (Day 1, 2 hours): 16.0 breaths/minute | Respiratory Rate, Min (Day 1, 2 hours): 13 breaths/minute | Respiratory Rate, Max (Day 1, 4 hours): 21 breaths/minute | Respiratory Rate, Mean (Day 1, 4 hours): 16.1 breaths/minute | Respiratory Rate, Median (Day 1, 4 hours): 16.0 breaths/minute | Respiratory Rate, Min (Day 1, 4 hours): 14 breaths/minute | Respiratory Rate, Max (Day 1, 6 hours): 18 breaths/minute | Respiratory Rate, Mean (Day 1, 6 hours): 15.9 breaths/minute | Respiratory Rate, Median (Day 1, 6 hours): 16.0 breaths/minute | Respiratory Rate, Min (Day 1, 6 hours): 14 breaths/minute | Respiratory Rate, Max (Day 2 - Discharge): 21 breaths/minute | Respiratory Rate, Mean (Day 2 - Discharge): 15.9 breaths/minute | Respiratory Rate, Median (Day 2 - Discharge): 16.0 breaths/minute | Respiratory Rate, Min (Day 2 - Discharge): 14 breaths/minute | Respiratory Rate, Max (Day 8): 18 breaths/minute | Respiratory Rate, Mean (Day 8): 15.9 breaths/minute | Respiratory Rate, Median (Day 8): 16.0 breaths/minute | Respiratory Rate, Min (Day 8): 14 breaths/minute | Respiratory Rate, Max (Day 15): 18 breaths/minute | Respiratory Rate, Mean (Day 15): 15.7 breaths/minute | Respiratory Rate, Median (Day 15): 16.0 breaths/minute | Respiratory Rate, Min (Day 15): 14 breaths/minute | Respiratory Rate, Change from Baseline, Max (to Day 1, 15 minutes): 3 breaths/minute | Respiratory Rate, Change from Baseline, Mean (to Day 1, 15 minutes): 0.1 breaths/minute | Respiratory Rate, Change from Baseline, Median (to Day 1, 15 minutes): 0.0 breaths/minute | Respiratory Rate, Change from Baseline, Min (to Day 1, 15 minutes): −3 breaths/minute | Respiratory Rate, Change from Baseline, Max (to Day 1, 40 minutes): 2 breaths/minute | Respiratory Rate, Change from Baseline, Mean (to Day 1, 40 minutes): −0.2 breaths/minute | Respiratory Rate, Change from Baseline, Median (to Day 1, 40 minutes): 0.0 breaths/minute | Respiratory Rate, Change from Baseline, Min (to Day 1, 40 minutes): −5 breaths/minute | Respiratory Rate, Change from Baseline, Max (to Day 1, 60 minutes): 3 breaths/minute | Respiratory Rate, Change from Baseline, Mean (to Day 1, 60 minutes): −0.4 breaths/minute | Respiratory Rate, Change from Baseline, Median (to Day 1, 60 minutes): 0.0 breaths/minute | Respiratory Rate, Change from Baseline, Min (to Day 1, 60 minutes): −5 breaths/minute | Respiratory Rate, Change from Baseline, Max (to Day 1, 2 hours): 3 breaths/minute | Respiratory Rate, Change from Baseline, Mean (to Day 1, 2 hours): −0.1 breaths/minute | Respiratory Rate, Change from Baseline, Median (to Day 1, 2 hours): 0.0 breaths/minute | Respiratory Rate, Change from Baseline, Min (to Day 1, 2 hours): −2 breaths/minute | Respiratory Rate, Change from Baseline, Max (to Day 1, 4 hours): 2 breaths/minute | Respiratory Rate, Change from Baseline, Mean (to Day 1, 4 hours): 0.2 breaths/minute | Respiratory Rate, Change from Baseline, Median (to Day 1, 4 hours): 0.0 breaths/minute | Respiratory Rate, Change from Baseline, Min (to Day 1, 4 hours): −2 breaths/minute | Respiratory Rate, Change from Baseline, Max (to Day 1, 6 hours): 2 breaths/minute | Respiratory Rate, Change from Baseline, Mean (to Day 1, 6 hours): −0.0 breaths/minute | Respiratory Rate, Change from Baseline, Median (to Day 1, 6 hours): 0.0 breaths/minute | Respiratory Rate, Change from Baseline, Min (to Day 1, 6 hours): −3 breaths/minute | Respiratory Rate, Change from Baseline, Max (to Day 2 - Discharge): 1 breaths/minute | Respiratory Rate, Change from Baseline, Mean (to Day 2 - Discharge): −0.1 breaths/minute | Respiratory Rate, Change from Baseline, Median (to Day 2 - Discharge): 0.0 breaths/minute | Respiratory Rate, Change from Baseline, Min (to Day 2 - Discharge): −4 breaths/minute | Respiratory Rate, Change from Baseline, Max (to Day 8): 3 breaths/minute | Respiratory Rate, Change from Baseline, Mean (to Day 8): −0.1 breaths/minute | Respiratory Rate, Change from Baseline, Median (to Day 8): 0.0 breaths/minute | Respiratory Rate, Change from Baseline, Min (to Day 8): −5 breaths/minute | Respiratory Rate, Change from Baseline, Max (to Day 15): 1 breaths/minute | Respiratory Rate, Change from Baseline, Mean (to Day 15): −0.3 breaths/minute | Respiratory Rate, Change from Baseline, Median (to Day 15): 0.0 breaths/minute | Respiratory Rate, Change from Baseline, Min (to Day 15): −6 breaths/minute
